Measured values: article PMC3444172 (The Journal of organic chemistry, 2012)
pKi: −log10 of the molar value. Entries after “also recorded” stand apart in the source; their conditions may differ. Like-named read-outs stand apart in the source and are kept apart here.

Tests used:
[1] = molecular target: T1, M. tuberculosis lumazine synthase (recombinant homopentameric) (Mycobacterium tuberculosis, UniProt P9WHE9); settings: previously reported compounds, cited from earlier work
[2] = molecular target: T2, E. coli riboflavin synthase (recombinant) (Escherichia coli, UniProt P0AFU8); settings: previously reported compounds, cited from earlier work
[3] = molecular target: baker's yeast riboflavin synthase; settings: cited from earlier work
[4] = system: B. subtilis lumazine synthase (recombinant β60 capsid); settings: previously reported compounds; cited from earlier work
[5] = molecular target: Ashbya gossypii riboflavin synthase; settings: cited from earlier work
[6] = molecular target: T1, M. tuberculosis lumazine synthase (recombinant homopentameric); format: biochemical; settings: for Kcat (rate constant ES → E + P): pH 7
[7] = molecular target: T2, E. coli riboflavin synthase (recombinant); assay: Kinetic assay of riboflavin synthase inhibitors, E. coli enzyme; format: biochemical; settings: for Kcat (rate constant ES → E + P) / Kis (ES + I ⇌ ESI) / Ks (substrate dissociation constant, E + S ⇌ ES): substrate 3 varied, Tris·HCl pH 7.0
[8] = molecular target: M. tuberculosis riboflavin synthase (recombinant) (Mycobacterium tuberculosis, UniProt P9WK35); assay: Kinetic assay of riboflavin synthase inhibitors, M. tuberculosis enzyme; format: biochemical; settings: for Kcat (rate constant ES → E + P) / Kis (ES + I ⇌ ESI) / Ks (substrate dissociation constant, E + S ⇌ ES): substrate 3 varied, Tris·HCl pH 7.0
[9] = molecular target: T3, S. pombe lumazine synthase (recombinant homopentameric) (Schizosaccharomyces pombe, UniProt Q9UUB1); assay: Kinetic assay of lumazine synthase inhibitors, S. pombe enzyme; format: biochemical; settings: for Kcat (rate constant ES → E + P) / Kis (ES + I ⇌ ESI) / Ks (substrate dissociation constant, E + S ⇌ ES): substrate 2 constant, substrate 1 varied, Tris·HCl pH 7.0
T3 sequence (Q9UUB1 1-159): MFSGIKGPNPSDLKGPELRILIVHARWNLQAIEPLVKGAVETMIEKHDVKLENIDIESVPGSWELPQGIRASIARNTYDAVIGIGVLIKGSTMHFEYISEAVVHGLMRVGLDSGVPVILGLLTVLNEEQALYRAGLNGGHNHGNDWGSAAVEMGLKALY

[10] = substrate 2 constant, substrate 1 varied, Tris·HCl pH 7.0

Sequence of M. tuberculosis riboflavin synthase (recombinant) (P9WK35 whole entry): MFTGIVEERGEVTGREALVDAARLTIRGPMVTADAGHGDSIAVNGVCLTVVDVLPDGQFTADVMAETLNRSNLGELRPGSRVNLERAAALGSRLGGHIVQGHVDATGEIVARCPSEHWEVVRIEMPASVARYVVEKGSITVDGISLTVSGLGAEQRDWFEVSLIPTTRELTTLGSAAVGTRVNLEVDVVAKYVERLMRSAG
T2 sequence (P0AFU8 whole entry): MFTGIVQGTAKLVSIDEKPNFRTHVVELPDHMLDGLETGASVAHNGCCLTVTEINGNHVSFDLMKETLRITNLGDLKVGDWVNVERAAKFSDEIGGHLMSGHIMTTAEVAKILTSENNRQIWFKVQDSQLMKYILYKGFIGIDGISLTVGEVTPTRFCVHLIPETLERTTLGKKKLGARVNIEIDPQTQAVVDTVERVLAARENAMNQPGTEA
T1 sequence (P9WHE9 whole entry): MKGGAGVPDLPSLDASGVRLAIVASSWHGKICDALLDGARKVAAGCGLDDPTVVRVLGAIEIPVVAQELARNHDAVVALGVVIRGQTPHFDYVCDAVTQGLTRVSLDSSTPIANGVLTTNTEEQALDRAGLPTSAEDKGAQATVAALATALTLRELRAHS

Structure (SMILES) | Mechanism of inhibition [6] | Kcat (rate constant ES → E + P) [6] [m^−1] | Kis (ES + I ⇌ ESI) [6, 10] [µM] | Ks (substrate dissociation constant, E + S ⇌ ES) [6, 10] [µM] | Mechanism of inhibition [7] | Kcat (rate constant ES → E + P) [7] [m^−1] | Kis (ES + I ⇌ ESI) [7] [µM] | Ks (substrate dissociation constant, E + S ⇌ ES) [7] [µM] | Mechanism of inhibition [8] | Kcat (rate constant ES → E + P) [8] [m^−1] | Kis (ES + I ⇌ ESI) [8] [µM] | Ks (substrate dissociation constant, E + S ⇌ ES) [8] [µM] | Mechanism of inhibition [9] | Kcat (rate constant ES → E + P) [9] [m^−1] | Kis (ES + I ⇌ ESI) [9] [µM] | Ks (substrate dissociation constant, E + S ⇌ ES) [9] [µM] | further results
O=c1[nH]c(=O)c2[nH]c(=O)c(=O)n(C[C@H](O)[C@H](O)[C@H](O)CO)c2[nH]1 [Compound 81, 6,7-dihydro-6,7-dioxo-8-ribityllumazine] |  |  |  |  |  |  |  |  |  |  |  |  |  |  |  |  | Kcat (rate constant ES → E + P) ([1]; Tris·HCl pH 7.0): 1.1 ± 0.1 m^−1; Mechanism of inhibition [1]: Competitive; Kcat (rate constant ES → E + P) ([2]; Tris·HCl pH 7.0): 15 ± 0 m^−1; Mechanism of inhibition [2]: Competitive; pKi [3]: 7.60; Mechanism of inhibition [4]: Competitive; pKi [5]: 8.05
Nc1c(OC[C@@H](O)[C@H](O)[C@@H](O)CO)[nH]c(=O)[nH]c1=O [Compound 29, 5-Amino-6-((2R,3R,4S)-2,3,4,5-tetrahydroxypentyloxy)pyrimidine-2,4(1H,3H)-dione] | Uncompetitive | 0.18 ± 0.01 | >1000 | 27 ± 2 | Uncompetitive | 3.2 ± 0.1 | >1000 | 2.5 ± 0.1 | Uncompetitive | 0.25 ± 0.01 | 577 ± 121 | 5.6 ± 0.5 | Partial | 1.3 ± 0.0 | 43 ± 8 | 1.2 ± 0.1 | 
CCOC(=O)C(=O)Nc1c(OC[C@H](O)[C@H](O)[C@H](O)CO)[nH]c(=O)[nH]c1=O [Compound 36, Ethyl 2-(2,4-dioxo-6-((2S,3R,4R)-2,3,4,5-tetrahydroxypentyloxy)1,2,3,4-tetrahydropyrimidin-5-ylamino)-2-oxoacetate] | Uncompetitive | 0.26 ± 0.01 | >1000 | 34 ± 5 | Uncompetitive | 5.8 ± 0.2 | >1000 | 3.0 ± 0.3 | Uncompetitive | 0.25 ± 0.01 | >1000 | 5.0 ± 0.5 | Uncompetitive | 2.7 ± 0.1 | >1000 | 6.4 ± 0.6 | inhibitory activity in words ([6]; lumazine synthase inhibition, qualitative statement): completely inactive; also recorded: totally inactive; Ki (E + I ⇌ EI) [6, 10]: > 1000 µM
